The values below are quoted from earlier work in patent US20050079136A1, “Aerosol formulations of delta tetrahydrocannabinol” (priority 2001, published 2005).

For the series, the system named is children with cancer.

In the case of `CCCCCc1cc(O)c2c(c1)OC(C)(C)[C@@H]1CC=C(C)C[C@@H]21` [Δ^8 THC, Δ^8 Tetrahydrocannabinol], the incidence of nausea result was “greatly reduced” and the side effects entry is “no significant side effects”.
